Test: Solubility in water
Type: physicochemical

NC(=O)C(CCC(=O)[O-])NC(=O)Cc1ccccc1.[Na+] (stereo not shown) [Iso-PG, phenylacetylisoglutaminate sodium]
solubility in water: soluble in water
